The nature of data set [1]: Spontaneous release of nitric oxide, titrated as nitrites+nitrates (Griess reagent, nitrate reductase). As to conditions: nitrites+nitrates released; test product 150 μM, 4 hours at 37° C., pH 7.5 PBS buffer; compounds of formula I. As for the experimental part:
A solution of a compound of the formula I of the invention spontaneously releases nitric oxide. The nitrite ions resulting therefrom are titrated by colorimetry by means of a specific reagent (Griess). To take account of any release of nitrate ions in addition to the nitrites, bacterial nitrate reductase is added to the reaction medium to reduce the nitrate ions formed.
The reactions and measurements are carried out in transparent 96-well plates. The test products are dissolved at the time of use, at a concentration of 3 mM in dimethyl sulfoxide. 95 μl of a reagent containing nitrate reductase (0.18 U/ml in 100 mM pH 7.5 PBS buffer, 210 μM β-NADPH, 5 μM FAD) and 5 μl of the solution of the test product (final concentration of 150 μM) are then added to each well. After stirring, the mixtures are incubated for 4 hours at 37° C. The reaction is then stopped by adding 100 μl of Griess' reagent (Sigma G4410). The resulting mixture is stirred for 5 min at room temperature, and the optical density is then read at 540 nm. This value is proportional to the concentration of nitrites+nitrates in the medium. A calibration range is made for each plate, using NaNO2.
The results are expressed as μmol/l (μM) of nitrites+nitrates released in Table A for some of the compounds of the formula I given as examples below.
(Griess reagent forms a coloured azo dye with nitrite.)

Data set [2] has as its system Human LDLs. The data set can be described thus: Oxidation of human LDL by cupric ions (fluorescence), antioxidant effect. The data set is classed as biochemical. The protocol:
Human LDLs placed in aqueous solution in the presence of cupric ions, become spontaneously oxidised on their protein component, apolipoprotein-B. This oxidation makes the particle fluorescent, which is exploited to measure a pharmacological effect.
The reactions and measurements are carried out in black 96-well plates. 10 μl of a solution of the test product dissolved in dimethyl sulfoxide are first mixed with 170 μl of a solution of human LDL at a concentration of 120 μg/ml and 20 μl of 100 μM CuCl2. After stirring, the mixture is incubated for 2 hours at 37° C., and a first fluorescence reading is taken (excitation at 360 nm, reading at 460 nm). The mixture is then incubated for a further 22 hours, to take a second reading under the same conditions. The difference is proportionately smaller the greater the antioxidant power of the test product. Probucol is used as reference product at a concentration of 10 μM.
The concentrations that inhibit 50% (IC50) of the oxidation are prepared from three concentrations of the test product. They are given in Table B below for some of the compounds of the formula I given as examples below.

[3] abbreviates: oxidation of human lipoproteins, compounds of formula II (Table C).
The mark [4] stands for this setting: human LDL + CuCl2, fluorescence 2 h vs 24 h at 37° C., compounds of formula I (Table B).

As to `COc1ccc(N(N=O)c2ccc(C(=O)Nc3ccccn3)cc2)cc1` [Example 14b, 4-[1-(4-methoxyphenyl)-2-oxohydrazino]-N-pyrid-2-ylbenzamide], in data set [1], the Nitrites-Nitrates came to 90 µM. On to `COc1ccc(Nc2ccc(C(=O)Nc3ccccc3)cc2)cc1` [Example 33a], for which, in data set [2] (setting [3]), the IC50 (as a rule, the point on the concentration scale where inhibition reaches its midpoint) was 12.9 µM. Same read-out and setting: then `COc1ccc(Nc2cccc(C(=O)NCc3cccnc3)c2)cc1` [Example 132a], with 7.7 µM; and `COc1ccc(Nc2cccc(C(=O)Nc3ccncc3)c2)cc1` [Example 135a], with 7.5 µM. Consider `COc1ccc(N(N=O)c2ccc(C(=O)Nc3ccncc3)cc2)cc1` [Example 15b], for which the Nitrites-Nitrates in data set [1] was determined as 82 µM. In data set [2] (setting [4]), the IC50 was 4.8 µM. On the same counts, the results for `COc1ccc(N(N=O)c2cccc(C(=O)Nc3cccnc3)c2)cc1` [Example 4b, 3-[1-(4-Methoxyphenyl)-2-oxohydrazino]-N-pyrid-3-ylbenzamide] are 70 µM and 12.7 µM. Molecule `COc1ccc(Nc2ccc(C(=O)Nc3cccc([N+](=O)[O-])c3)cc2)cc1` [Example 8a] registered an IC50 in data set [2] (setting [3]) of 10 µM. Still for that read-out and setting: to `COc1ccc(Nc2cccc(C(=O)Nc3ccccn3)c2)cc1` [Example 134a] belongs 4.5 µM.

In data set [2] (setting [3]), `COc1ccc(Nc2ccc(S(=O)(=O)Nc3cccnc3)cc2)cc1` [Example 136a] yielded an IC50 of 19.8 µM. As for `COc1ccc(N(N=O)c2ccc(C(=O)NCCN3CCN(C)CC3)cc2)cc1` [Example 6b, 4-[1-(4-Methoxyphenyl)-2-oxohydrazino]-N-[2-(4-methylpiperazin-1-yl)-ethyl]benzamide], in data set [1], the Nitrites-Nitrates came to 58 µM. Consider `COc1ccc(N(N=O)c2cccc(C(=O)NCc3cccnc3)c2)cc1` [Example 132b], for which, in data set [1], the Nitrites-Nitrates was determined as 82 µM. For the same molecule, the IC50 in data set [2] (setting [4]) was found to be 9.3 µM. For `COc1ccc(N(N=O)c2cccc(C(=O)Nc3ccncc3)c2)cc1` [Example 135b] the same measures were 75 µM and 8.6 µM. In data set [2] (setting [3]), `COc1ccc(Nc2cccc(C(=O)Nc3cccnc3)c2)cc1` [Example 4a, 3-[(4-Methoxyphenyl)amino]-N-pyrid-3-ylbenzamide] had an IC50 of 9.1 µM. For `COc1ccc(N(N=O)c2ccc(C(=O)Nc3cccnc3)cc2)cc1` [Example 1b, 4-[1-(4-Methoxyphenyl)-2-oxohydrazino]-N-pyrid-3-ylbenzamide], the melting point (usually the temperature of the solid-liquid transition) lay within 167 to 169 °C. In data set [1], the Nitrites-Nitrates worked out at 63 µM. The IC50 in data set [2] (setting [4]) amounted to 4.6 µM. For `O=NN(c1ccc(C(=O)Nc2cccnc2)cc1)c1ccc([N+](=O)[O-])cc1` [Example 5b, 4-[1-(4-Nitrophenyl)-2-oxohydrazino]-N-pyrid-3-ylbenzamide], the Nitrites-Nitrates in data set [1] came out at 47 µM.

These data come from patent publication US20050154232A1, “Nitrosodiphenylamine derivatives and their pharmaceutical use against oxidative stress pathologies” (priority 2002, published 2005).
